Experimental data reported in patent US8372967B2, “Compounds and methods for modulating expression of GCCR” (Isis Pharmaceuticals, Inc., priority 2006, dated 2013).
Strand notation (5' to 3'): a small letter for the sugar, then the base; units joined by * are phosphorothioate-linked, units joined directly phosphodiester-linked; [ ] holds rarer units or linkages, { } end groups; capitals alone tell only the bases. [PAM-N] = nucleoside carrying a 2'-(butylacetamido)-palmitamide group (palmitic acid C16 conjugate) (N: the base); e = 2'-O-(2-methoxyethyl) (MOE); [5mC] = 5-methylcytosine; d = 2'-deoxy (DNA)

Legend:
[1] = system: monkey GCGR mRNA; experiment: Antisense inhibition of GCGR in primary monkey hepatocytes (Table 80); format: cell-based; conditions: relative to untreated control cells
Procedure: Additional short antisense compounds targeted to a GCGR nucleic acid were tested for their effects on monkey GCGR mRNA in vitro. Cultured primary monkey hepatocytes were treated as described herein with 25, 50, 100 or 200 nM of short antisense compound. After the treatment period, RNA was isolated from the cells and GCGR mRNA levels were measured by quantitative real-time PCR, as described herein. GCGR mRNA levels were adjusted according to total RNA content as measured by RIBOGREEN®. Results are presented in Table 80 as percent reduction in GCGR mRNA, relative to untreated control cells.

[2] = system: GCGR mRNA; experiment: Antisense inhibition of GCGR in HepG2 cells (Table 79); format: cell-based, human; conditions: HepG2 cells, relative to untreated control cells
Procedure: Short antisense compounds targeted to a GCGR nucleic acid were tested for their effects on GCGR mRNA in vitro.
Cultured HepG2 cells at a density of 10000 cells per well in a 96-well plate were treated as described herein with 25, 50, 100 or 200 nM of antisense oligonucleotide. After the treatment period, RNA was isolated from the cells and GCGR mRNA levels were measured by quantitative real-time PCR, as described herein. GCGR mRNA levels were adjusted according to total RNA content as measured by RIBOGREEN®. Results are presented as percent reduction in GCGR mRNA, relative to untreated control cells.

[3] = HbA1c status in ZDF rat (Table 72); format: in vivo; conditions: ZDF rat, 400 nM/kg i.p. once a week
Procedure: (§1) ISIS 388625, 388626 and control oligo ISIS 388628 were analyzed for their effect on ZDF rat plasma glucose levels and HbA1c. The leptin receptor deficient Zucker diabetic fatty (ZDF) rat is a useful model for the investigation of type 2 diabetes. Diabetes develops spontaneously in these male rats at ages 8-10 weeks, and is associated with hyperphagia, polyuria, polydipsia, and impaired weight gain, symptoms which parallel the clinical symptoms of diabetes (Phillips M S, et al., 1996, Nat Genet. 13, 18-19). Six week old ZDF rats were injected intraperitoneally with short antisense compound at a dose of 400 nM/kg once a week for twelve weeks. Data are illustrated in Tables 71 and 72.

[4] = Plasma glucose in ZDF rat (Table 71); format: in vivo; conditions: ZDF rat, 400 nM/kg i.p. once a week
Procedure: as §1

[5] = system: ApoB mRNA; experiment: ApoB mRNA in liver and estimated ED50, compounds comprising palmitic acid conjugates (Table 95); format: in vivo, mouse; conditions: ApoB mRNA in liver, Balb/c mice, relative to saline
Procedure: 0.4, and 0.16 umol/kg. Each dose group consisted of four animals. A 5-10-5 MOE gapmer was used for a control treatment. Mice were sacrificed approximately 48 hours following the final dose. Liver tissue was collected for RNA isolation, and blood was collected for serum chemistry analyses. ApoB mRNA levels were measured by real-time PCR as described herein. ApoB mRNA levels were normalized to RNA levels as determined by RIBOGREEN, and are presented in Table 95 as percent inhibition relative to ApoB mRNA levels in saline-treated control animals.
At the 2.5 umol/kg dose, ApoB inhibition by the short antisense compounds was greater than observed with a 5-10-5 MOE gapmer at an equivalent dose. […] Triglycerides were reduced at the 2.5 and […] doses of ISIS 387462 and ISIS 391872.

327161 (antisense eA*eG*e[5mC]*dT*dG*d[5mC]*dT*dG*dT*dA*d[5mC]*eA*eT*e[5mC]) [compound 327161]
percent reduction in GCGR mRNA ([1]; 25 nM): −19%
percent reduction in GCGR mRNA ([1]; 50 nM): −33%
percent reduction in GCGR mRNA ([1]; 100 nM): −55%
percent reduction in GCGR mRNA ([1]; 200 nM): −54%
percent reduction in GCGR mRNA ([2]; 25 nM): −36%
percent reduction in GCGR mRNA ([2]; 50 nM): −30%
percent reduction in GCGR mRNA ([2]; 100 nM): −33%
percent reduction in GCGR mRNA ([2]; 200 nM): −64%

388626 (eG*eG*d[5mC]*dA*dT*dG*dA*dG*d[5mC]*dT*eT*e[5mC]) [compound 388626]
Percentage HbA1c ([3]; Day 40): 6.6%
Percentage HbA1c ([3]; Day 55): 5.9%
Percentage HbA1c ([3]; Day 68): 4.0%
Plasma glucose levels ([4]; Day 10): 434.7 mg/dL
Plasma glucose levels ([4]; Day 40): 300.5 mg/dL
Plasma glucose levels ([4]; Day 55): 219.8 mg/dL
Plasma glucose levels ([4]; Day 66): 379.8 mg/dL

391871 ([PAM-G]*eG*dT*dA*dC*dA*dT*dG*dG*dA*dA*dG*eT*e[5mC]) [compound 391871]
% Inhib ([5]; single i.p. injection 0.16 umol/kg): 0%
% Inhib ([5]; single i.p. injection 0.4 umol/kg): 5%
% Inhib ([5]; single i.p. injection 1.0 umol/kg): 18%
